Key:
[1] = test system: Por. gingivalis NCTC 11834; assay: MIC assay, liquid medium; assay type: cell-based, Porphyromonas gingivalis
Method: The P. gingivalis strains were cultured and maintained on Wilkins-Chalgren Anaerobe Medium (agar and broth) at pH 7.0; all cultures were incubated anaerobically at 37° C. for 5-7 days.
(§1) This is a standard international method for quantitatively assessing the antimicrobial activity of a compound in a liquid medium. The method used a sterile 96-well microtitre plate, capable of holding about 200 μl of liquid per well. The wells contained liquid culture medium and ranges of decreasing concentrations of the relevant test compound in doubling dilutions (eg, 1000, 500, 250, 125 . . . μg/ml, etc. down to 0.49 μg/ml). The culture media were as described above.
(§2) The wells were inoculated with a liquid suspension of freshly grown micro-organism and incubated under the conditions described above. After incubation, the microtitre plate was examined visually (with the aid of a light box) for cloudiness in each well, which would indicate microbial growth. The MIC value was recorded as the lowest concentration of test compound required to inhibit microbial growth, ie, the lowest concentration for which the liquid in the well remained clear.
(§3) The assays included both negative (culture medium with no micro-organisms) and positive (culture medium plus diluting solvent plus micro-organism) controls.

Strep. mutans ATCC 25175 [2] = assay: MIC assay, liquid medium; assay type: cell-based, Streptococcus mutans
Method: The S. mutans was cultured and maintained on Wilkins-Chalgren Anaerobe Medium (agar and broth) at pH 7.0 supplemented with 1 g/L glucose; all cultures were incubated at 37° C. for 48 h in an atmosphere containing 5% CO2.
as §1, §2, §3

Strep. mutans ATCC 25175 [3] = assay: MBC assay; assay type: cell-based, Streptococcus mutans
Method: The S. mutans was cultured and maintained on Wilkins-Chalgren Anaerobe Medium (agar and broth) at pH 7.0 supplemented with 1 g/L glucose; all cultures were incubated at 37° C. for 48 h in an atmosphere containing 5% CO2. This assay, normally carried out after an MIC assay, determines the rnininiurn concentration of a compound that is lethal to the micro-organism being tested. […] These samples were then individually sub-cultured on antibiotic-free agar medium, under the incubation conditions described above. Following incubation they were examined visually for microbial growth.

C. striatum NCTC 764 [4] = assay: MIC assay, liquid medium; assay type: cell-based, Corynebacterium striatum
Method: (§4) Several Corynebacterium test species were also used in this study, namely C. mucifaciens ATCC 700355, C. striatum NCTC 764, C. xerosis NCTC 11861 and C. jeikeium NCTC 11915. These Gram-positive pathogens are closely related to organisms (aerobic diphtheroids of the genus Corynebacterium) that cause body odour. C. mucifaciens and C. striatum were cultured and maintained on Mueller-Hinton Medium (agar and broth) and were incubated aerobically at 37° C. for 24 hours. C. xerosis and C. jeikeium were cultured and maintained on Mueller-Hinton Medium containing 5% (v/v) lysed horse blood (agar and broth) and were incubated aerobically at 37° C. for 72 hours.
This is a standard international method for quantitatively assessing the antimicrobial activity of a compound in a liquid medium. The method used a sterile 96-well microtitre plate, capable of holding about 200 μl of liquid per well. […]
The wells were inoculated with a liquid suspension of freshly grown micro-organism and incubated under the conditions described above. […] The MIC value was recorded as the lowest concentration of test compound required to inhibit microbial growth, ie, the lowest concentration for which the liquid in the well remained clear. […]

C. striatum NCTC 764 [5] = assay: MBC assay; assay type: cell-based, Corynebacterium striatum
Method: as §4, with “72 hours. This assay, normally carried out after an MIC assay, determines the rnininiurn concentration of a compound that is lethal to the micro-organism being tested. […] These samples were then individually sub-cultured on antibiotic-free agar medium, under the incubation conditions described above. Following incubation they were examined visually for microbial growth.” for “72 hours.”

Por. gingivalis 381 = assay: Biofilm disruption assay on hydroxyapatite discs; assay type: cell-based, Porphyromonas gingivalis; conditions: Por. gingivalis 381 biofilm, DOSS 0.5% (w/v), CHX 0.2% (w/v)
Method: (§5) This assay was designed to determine quantitatively the relative potency of a test compound to disrupt (effectively kill) biofilms formed by a test organism on hydroxyapatite (HA) discs.
(§6) Biofilms were formed on sterile dense ceramic HA discs 7 mm diameter x 1.8 mm thick (Clarkson Chromatography) by placing the discs in the appropriate liquid media (as described above) inoculated with the test organism (0.5×10^8 cfu/ml). The HA discs were then incubated at 37° C. for ˜48 h in a 5% CO2 atmosphere (for Strep. mutans ATCC 25175) or ˜96 h under anaerobic conditions (for Por. gingivalis 381). Following the incubation period the supernatant was removed from the wells containing the HA discs and the discs were washed×3 with fresh media to ensure all planktonic cells were removed. The HA discs were then transferred to sterile bijoux bottles containing 1 ml of phosphate buffered saline (PBS) plus test compound(s) at the required concentration. After a set time period (usually 2 and/or 5 min), the HA disc was transferred to another sterile bijoux containing 1 ml of fresh growth media. Adherent cells were then harvested by vigorous vortexing for 2 minutes. A sample was then taken, serially diluted 10-fold in fresh growth media and inoculated onto agar plates in triplicate. Untreated HA discs, and HA discs added to PBS containing only the solvents used to dissolve the test compound(s), acted as controls.
(§7) The plates were then incubated as described above and subsequently examined visually for growth. Colonies were counted at an appropriate serial dilution (5-50 individual colonies visible) with the aid of a colony counter. These measurements were then converted to numbers of colony forming units (cfu), using the formula: cfu/ml=number of colonies×serial dilution factor×100 (as only a 10 μl sample was taken).
(§8) These cfu values were then converted into log10 values and plotted graphically against time of sample removal.
(§9) At each time point, samples were assessed in triplicate; the final cfu/ml value was an average (mean) of the three readings.
(§10) Biofilm disruption assays, as described above, were carried out using DOSS as the test compound and chlorhexidine (CHX) as a positive control. For these experiments, the DOSS was tested at 0.5% w/v against Por. gingivalis and 1% w/v against Strep. mutans. The ahlorhexidine was tested at a concentration of 0.2% w/v against both micro-organisms. The DOSS was dissolved in ethanol and the chlorhexidine in distilled water. All the experiments were conducted in triplicate.

Strep. mutans ATCC 25175 [6] = assay: Biofilm disruption assay on hydroxyapatite discs; assay type: cell-based, Streptococcus mutans; conditions: Strep. mutans ATCC 25175 biofilm, DOSS 1.0% (w/v), CHX 0.2% (w/v)
Method: as §5, §6, §7, §8, §9, §10

dioctyl sodium sulphosuccinate [DOSS] was tested. Which MIC [1] did it give?
Its MIC is under 0.49 µg/mL.

And the MIC (Strep. mutans ATCC 25175 [2])?
The MIC was 15.6 µg/mL.

And the MBC (Strep. mutans ATCC 25175 [3])?
The MBC was 15.6 µg/mL.

What about the MIC/MBC ratio (Strep. mutans ATCC 25175 [3]) of the same substance?
Its MIC/MBC ratio is 1.

And the MIC (C. striatum NCTC 764 [4])?
The MIC was 62.5 µg/mL.

What about the MBC (C. striatum NCTC 764 [5]) of the same substance?
The MBC was 62.5 µg/mL.

What about the MIC/MBC ratio (C. striatum NCTC 764 [5]) of the same substance?
The MIC/MBC ratio was 1.

And the Viable cell counts (Por. gingivalis 381; 0 min)?
Its Viable cell counts is 7.53 log10 cfu/ml.

And the Viable cell counts (Por. gingivalis 381; 2 min)?
The Viable cell counts was 5.08 log10 cfu/ml.

And the Viable cell counts (Por. gingivalis 381; 5 min)?
The Viable cell counts was 3.34 log10 cfu/ml.

And the Viable cell counts (Strep. mutans ATCC 25175 [6]; 0 min)?
Its Viable cell counts is 6.56 log10 cfu/ml.

What about the Viable cell counts (Strep. mutans ATCC 25175 [6]; 2 min) of the same substance?
Its Viable cell counts is 2.87 log10 cfu/ml.

And the Viable cell counts (Strep. mutans ATCC 25175 [6]; 5 min)?
The Viable cell counts was 3.36 log10 cfu/ml.
